One experiment addresses SARS-CoV 3CL protease (Severe acute respiratory syndrome coronavirus, UniProt P0C6X7). In words: biochemical. The following applies: for IC50: FRET, three parallel tests; for inhibitory activity on SARS-CoV 3CL proteases (in words): statement in words.
The target of the next experiment is SARS-CoV-2 3CL protease (Severe acute respiratory syndrome coronavirus 2, UniProt P0DTD1). Put plainly: In-vitro enzyme activity inhibition test on SARS-CoV-2 3CL protease (fluorescence resonance energy transfer method). It counts as biochemical. The following applies: for inhibitory activity on SARS-CoV-2 3CL proteases (in words): statement in words.
Where [1] appears, read: 1 μM compound, parallel tests 1, 2, 3, 1 µM.
[2] abbreviates: 5 μM compound, parallel tests 1, 2, 3, 5 µM.
The mark [3] stands for this setting: 10 μM compound, parallel tests 1, 2, 3, 10 µM.
Setting [4] is: 20 μM compound, parallel tests 1, 2, 3, 20 µM.
The mark [5] stands for this setting: 30 μM compound, parallel tests 1, 2, 3, 30 µM.
[6] abbreviates: 50 μM compound, parallel tests 1, 2, 3, 50 µM.
[7] abbreviates: 100 μM compound, parallel tests 1, 2, 3, 100 µM.
Where [8] appears, read: read-out: inhibition percentage, 1 μM compound, parallel tests 1, 2, 3.
Setting [9] is: read-out: inhibition percentage, 5 μM compound, parallel tests 1, 2, 3.
Where [10] appears, read: read-out: inhibition percentage, 10 μM compound, parallel tests 1, 2, 3.
Where [11] appears, read: read-out: inhibition percentage, 20 μM compound, parallel tests 1, 2, 3.
[12] abbreviates: read-out: inhibition percentage, 30 μM compound, parallel tests 1, 2, 3.
[13] abbreviates: read-out: inhibition percentage, 50 μM compound, parallel tests 1, 2, 3.
Setting [14] is: read-out: inhibition percentage, 100 μM compound, parallel tests 1, 2, 3.
Setting [15] is: IC50, SARS-CoV-2 3CL protease, FRET, three parallel tests.
Where [16] appears, read: 0.1 μM compound, parallel tests 1, 2, 3, 0.1 µM.
[17] abbreviates: 0.5 μM compound, parallel tests 1, 2, 3, 0.5 µM.

Each structure is given as a SMILES string. Values joined by “and” are separate entries in the source; they are usually repeats but may differ in a detail not shown here. Equal entries are not always repeated. “Also recorded” adds a separate entry of the source. Where two headings read alike, the source gives them in different places. A value given as a limit tells only on which side of the number the result lay.

The IC50 is the concentration that inhibits the measured activity by half. For orientation: inhibition means the change of the read-out against control, counted positive when it falls. `Cc1cc2c(C(C)C)c(O)c(O)c(C=O)c2c(O)c1-c1c(C)cc2c(C(C)C)c(O)c(O)c(C=O)c2c1O` [Gossypol, gossypol]: the inhibition percentage is 18.54 and 31.50 against SARS-CoV 3CL protease (setting [1]); 35.68 and 44.78 against SARS-CoV 3CL protease (setting [2]); 51.33 and 64.31 against SARS-CoV 3CL protease (setting [3]); 64.56 and 77.58 on SARS-CoV 3CL protease (setting [4]); 75.44 and 86.42 on SARS-CoV 3CL protease (setting [5]); 84.12 and 93.41 on SARS-CoV 3CL protease (setting [6]). Besides, the inhibition percentage against SARS-CoV 3CL protease (setting [7]) is 90.09 and 98.44; on SARS-CoV-2 3CL protease (setting [1]) it was 16.13 and 28.41; against SARS-CoV-2 3CL protease (setting [2]), 33.24 and 41.67; against SARS-CoV-2 3CL protease (setting [3]) it was 49.17 and 61.32; on SARS-CoV-2 3CL protease (setting [4]), 61.34 and 74.52; against SARS-CoV-2 3CL protease (setting [5]), 72.15 and 83.12. Further, the inhibition percentage on SARS-CoV-2 3CL protease (setting [6]) was 81.17 and 90.16; on SARS-CoV-2 3CL protease (setting [7]) it was 87.84 and 95.27. For the same compound, the 50% inhibitory concentration (IC50) against SARS-CoV 3CL protease (IC50, SARS-CoV 3CL protease) was 5.43 ± 0.734 µM; against SARS-CoV-2 3CL protease (setting [15]), 6.91 ± 0.839 µM. Besides, the inhibition at 1 µM on SARS-CoV 3CL protease (setting [8]) was 25.6%; at SARS-CoV-2 3CL protease (setting [8]), 22.9%. The inhibition at 5 µM came to 40.4% on SARS-CoV 3CL protease (setting [9]) and 36.2% at SARS-CoV-2 3CL protease (setting [9]). In addition, the inhibition at 10 µM on SARS-CoV 3CL protease (setting [10]) was found to be 61.2%; on SARS-CoV-2 3CL protease (setting [10]), 57.4%. The inhibition at 20 µM on SARS-CoV 3CL protease (setting [11]) was 75%; at SARS-CoV-2 3CL protease (setting [11]), 71.2%. Besides, the inhibition at 30 µM at SARS-CoV 3CL protease (setting [12]) was 85.1%; on SARS-CoV-2 3CL protease (setting [12]), 83.7%. Also, the inhibition at 50 µM at SARS-CoV 3CL protease (setting [13]) came to 92.1%; at SARS-CoV-2 3CL protease (setting [13]) it was 88.4%. For the same compound, the inhibition at 100 µM on SARS-CoV 3CL protease (setting [14]) stood at 96.3%; at SARS-CoV-2 3CL protease (setting [14]), 93.2%. For the same compound, at SARS-CoV 3CL protease, the “inhibitory activity on SARS-CoV 3CL proteases (in words)” value is listed as “all have inhibitory activity; also recorded: excellent inhibitory activity”. The “inhibitory activity on SARS-CoV-2 3CL proteases (in words)” value on SARS-CoV-2 3CL protease is “all have inhibitory activity; also recorded: excellent inhibitory activity”.

For `Cc1cc2c(C(C)C)c(O)c(O)c(C=O)c2c(O)c1-c1c(C)cc2c(C(C)C)c(O)c(O)c(C=O)c2c1O` (single isomer, unassigned) [(−)- gossypol, (−)-gossypol], the inhibition percentage was 13.11 and 10.83 and 15.87 against SARS-CoV 3CL protease (setting [16]); 24.54 and 21.88 and 30.26 on SARS-CoV 3CL protease (setting [17]); 43.78 and 40.92 and 50.01 at SARS-CoV 3CL protease (setting [1]); 64.32 and 58.9 and 67.22 against SARS-CoV 3CL protease (setting [2]); 77.32 and 72.54 and 73.76 at SARS-CoV 3CL protease (setting [3]); 86.43 and 78.13 and 85.43 on SARS-CoV 3CL protease (setting [4]). Besides, the inhibition percentage at SARS-CoV 3CL protease (setting [5]) was 91.83 and 87.54 and 90.32; against SARS-CoV 3CL protease (setting [6]), 98.42 and 92.10 and 97.54; against SARS-CoV 3CL protease (setting [7]) it was 99.74 and 98.12 and 99.53; on SARS-CoV-2 3CL protease (setting [16]) it was 12.83 and 10.83 and 14.77; against SARS-CoV-2 3CL protease (setting [17]), 20.99 and 19.88 and 22.88; against SARS-CoV-2 3CL protease (setting [1]), 31.43 and 32.87 and 34.65. For the same compound, the inhibition percentage against SARS-CoV-2 3CL protease (setting [2]) was 52.19 and 48.98 and 56.91; at SARS-CoV-2 3CL protease (setting [3]) it was 71.90 and 65.43 and 69.78; against SARS-CoV-2 3CL protease (setting [4]), 82.54 and 75.44 and 83.47; against SARS-CoV-2 3CL protease (setting [5]) it was 90.45 and 83.21 and 91.45; at SARS-CoV-2 3CL protease (setting [6]) it was 96.88 and 90.68 and 95.87; at SARS-CoV-2 3CL protease (setting [7]), 99.23 and 96.73 and 98.44. In addition, the IC50 against SARS-CoV 3CL protease (IC50, SARS-CoV 3CL protease) is 1.79 µM and < 10 µM; on SARS-CoV-2 3CL protease (IC50), 2.97 ± 0.473 µM; against SARS-CoV-2 3CL protease (setting [15]), under 10 µM. Moreover, on SARS-CoV 3CL protease, the “inhibitory activity on SARS-CoV 3CL proteases (in words)” value is listed as “all have inhibitory activity; also recorded: excellent inhibitory activity”. At SARS-CoV-2 3CL protease, the “inhibitory activity on SARS-CoV-2 3CL proteases (in words)” value was “all have inhibitory activity; also recorded: excellent inhibitory activity”.

As to `Cc1cc2c(C(C)C)c(O)c(O)c(C=O)c2c(O)c1-c1c(C)cc2c(C(C)C)c(O)c(O)c(C=O)c2c1O` (single isomer, unassigned) [(+)- gossypol, (+)-gossypol], the inhibition percentage at SARS-CoV 3CL protease (setting [1]) was 3.96 and 4.54 and 5.87; on SARS-CoV 3CL protease (setting [2]), 11.58 and 9.88 and 13.43; at SARS-CoV 3CL protease (setting [3]), 19.12 and 16.53 and 20.66; against SARS-CoV 3CL protease (setting [4]), 22.9 and 26.42 and 30.76; at SARS-CoV 3CL protease (setting [5]), 28.14 and 30.43 and 38.33; against SARS-CoV 3CL protease (setting [6]), 45.56 and 48.42 and 51.33. The inhibition percentage on SARS-CoV 3CL protease (setting [7]) is 72.33 and 62.28 and 74.43; on SARS-CoV-2 3CL protease (setting [1]), 2.45 and 3.18 and 3.87; against SARS-CoV-2 3CL protease (setting [2]), 5.69 and 7.88 and 9.54; against SARS-CoV-2 3CL protease (setting [3]) it was 9.43 and 11.87 and 14.87; against SARS-CoV-2 3CL protease (setting [4]), 18.73 and 20.90 and 22.44; at SARS-CoV-2 3CL protease (setting [5]) it was 25.21 and 28.43 and 29.13. In addition, the inhibition percentage at SARS-CoV-2 3CL protease (setting [6]) was 36.55 and 40.32 and 38.72; against SARS-CoV-2 3CL protease (setting [7]), 58.34 and 61.83 and 55.88. Also, the IC50 was found to be 51.6 ± 1.71 µM on SARS-CoV 3CL protease (IC50, SARS-CoV 3CL protease) and 75.2 ± 1.88 µM on SARS-CoV-2 3CL protease (setting [15]). At SARS-CoV 3CL protease, the “inhibitory activity on SARS-CoV 3CL proteases (in words)” value is “all have inhibitory activity”. Also, on SARS-CoV-2 3CL protease, the “inhibitory activity on SARS-CoV-2 3CL proteases (in words)” value is reported as “all have inhibitory activity”.

With `CC(=O)O.Cc1cc2c(C(C)C)c(O)c(O)c(C=O)c2c(O)c1-c1c(C)cc2c(C(C)C)c(O)c(O)c(C=O)c2c1O` [Acetate gossypol, acetate gossypol], the inhibition percentage was 26.61 and 19.97 and 32.84 at SARS-CoV 3CL protease (setting [1]); 41.15 and 36.26 and 45.91 at SARS-CoV 3CL protease (setting [2]); 62.48 and 52.56 and 65.81 against SARS-CoV 3CL protease (setting [3]); 75.14 and 65.81 and 78.97 against SARS-CoV 3CL protease (setting [4]); 86.61 and 76.15 and 87.62 at SARS-CoV 3CL protease (setting [5]); 93.52 and 85.63 and 94.62 on SARS-CoV 3CL protease (setting [6]). In addition, the inhibition percentage is 97.81 and 91.32 and 98.71 against SARS-CoV 3CL protease (setting [7]); 24.71 and 17.94 and 30.17 against SARS-CoV-2 3CL protease (setting [1]); 37.81 and 34.61 and 43.51 against SARS-CoV-2 3CL protease (setting [2]); 59.14 and 50.87 and 63.21 against SARS-CoV-2 3CL protease (setting [3]); 72.87 and 63.41 and 76.32 against SARS-CoV-2 3CL protease (setting [4]); 85.31 and 73.94 and 84.81 against SARS-CoV-2 3CL protease (setting [5]). Moreover, the inhibition percentage against SARS-CoV-2 3CL protease (setting [6]) was 90.17 and 82.76 and 91.83; against SARS-CoV-2 3CL protease (setting [7]), 95.41 and 89.67 and 97.16. Further, the IC50 turned out to be 5.16 ± 0.712 µM on SARS-CoV 3CL protease (SARS-CoV 3CL protease, read-out: IC50) and 6.09 ± 0.784 µM at SARS-CoV-2 3CL protease (SARS-CoV-2 3CL protease, FRET, three parallel tests, read-out: IC50). Besides, the “inhibitory activity on SARS-CoV 3CL proteases (in words)” value against SARS-CoV 3CL protease was “all have inhibitory activity; also recorded: excellent inhibitory activity”. The “inhibitory activity on SARS-CoV-2 3CL proteases (in words)” value at SARS-CoV-2 3CL protease was “all have inhibitory activity; also recorded: excellent inhibitory activity”.

For the origin of these results see patent publication US20240074990A1 (priority 2022, published 2024).
